system: MDA-MB-435; test: Growth inhibition of human MDA-MB-435 cells incubated for 48 hrs by sulforhodamine B assay; assay type: functional, cell-based; conditions: MDA-MB-435, 48 h, read-out: TGI

Structure (SMILES) | TGI [µM]
COc1cc(Cl)cc(-c2nn(-c3cccc(NC(=O)Nc4cccc(C(F)(F)F)c4)c3)cc2-c2ccncc2)c1 | 35.2

same assay, conditions: MDA-MB-435, 48 h, read-out: pGI50 (converted)

Structure (SMILES) | GI50 [µM]
COc1cc(Cl)cc(-c2nn(-c3cccc(NC(=O)Nc4cccc(C(F)(F)F)c4)c3)cc2-c2ccncc2)c1 | 1.74

same assay, conditions: MDA-MB-435, 48 h, read-out: pLC50 (converted)

Structure (SMILES) | LC50 [µM]
COc1cc(Cl)cc(-c2nn(-c3cccc(NC(=O)Nc4cccc(C(F)(F)F)c4)c3)cc2-c2ccncc2)c1 | 8.32

same assay, conditions: MDA-MB-435, 48 h, read-out: pTGI (converted)

Structure (SMILES) | TGI [µM]
COc1cc(Cl)cc(-c2nn(-c3cccc(NC(=O)Nc4cccc(C(F)(F)F)c4)c3)cc2-c2ccncc2)c1 | 3.8

system: UO-31; test: Growth inhibition of human UO31 cells assessed as cell growth at 1 uM incubated for 48 hrs by sulforhodamine B assay relative to control; assay type: functional; conditions: UO-31, 48 h, read-out: Activity

Structure (SMILES) | growth at 1 µM [%]
COc1cc(Cl)cc(-c2nn(-c3cccc(NC(=O)Nc4cccc(C(F)(F)F)c4)c3)cc2-c2ccncc2)c1 | 51

system: SW-620; test: Growth inhibition of human SW620 cells assessed as cell growth at 0.1 uM incubated for 48 hrs by sulforhodamine B assay relative to control; assay type: functional; conditions: SW-620, 48 h, read-out: Activity

Structure (SMILES) | growth at 0.1 µM [%]
COc1cc(Cl)cc(-c2nn(-c3cccc(NC(=O)Nc4cccc(C(F)(F)F)c4)c3)cc2-c2ccncc2)c1 | 100

system: LOX IMVI; test: Growth inhibition of human LOXIMVI cells assessed as cell growth at 1 uM incubated for 48 hrs by sulforhodamine B assay relative to control; assay type: functional; conditions: read-out: Activity

Structure (SMILES) | growth at 1 µM [%]
COc1cc(Cl)cc(-c2nn(-c3cccc(NC(=O)Nc4cccc(C(F)(F)F)c4)c3)cc2-c2ccncc2)c1 | 72

system: K562; test: Growth inhibition of human K562 cells assessed as cell growth at 100 uM incubated for 48 hrs by sulforhodamine B assay relative to control; assay type: functional; conditions: K562, 48 h, read-out: Activity

Structure (SMILES) | growth at 100 µM [%]
COc1cc(Cl)cc(-c2nn(-c3cccc(NC(=O)Nc4cccc(C(F)(F)F)c4)c3)cc2-c2ccncc2)c1 | -22

system: SK-OV-3; test: Growth inhibition of human SKOV3 cells incubated for 48 hrs by sulforhodamine B assay; assay type: functional, cell-based; conditions: SK-OV-3, 48 h, read-out: GI50

Structure (SMILES) | GI50 [µM]
COc1cc(Cl)cc(-c2nn(-c3cccc(NC(=O)Nc4cccc(C(F)(F)F)c4)c3)cc2-c2ccncc2)c1 | 3.61

same assay, conditions: SK-OV-3, 48 h, read-out: LC50 (the source's name)

Structure (SMILES) | CC50 [µM]
COc1cc(Cl)cc(-c2nn(-c3cccc(NC(=O)Nc4cccc(C(F)(F)F)c4)c3)cc2-c2ccncc2)c1 | > 100

same assay, conditions: SK-OV-3, 48 h, read-out: TGI

Structure (SMILES) | TGI [µM]
COc1cc(Cl)cc(-c2nn(-c3cccc(NC(=O)Nc4cccc(C(F)(F)F)c4)c3)cc2-c2ccncc2)c1 | 55.4

same assay, conditions: SK-OV-3, 48 h, read-out: pGI50 (converted)

Structure (SMILES) | GI50 [µM]
COc1cc(Cl)cc(-c2nn(-c3cccc(NC(=O)Nc4cccc(C(F)(F)F)c4)c3)cc2-c2ccncc2)c1 | 3.63

same assay, conditions: SK-OV-3, 48 h, read-out: pLC50 (the source's name) (converted)

Structure (SMILES) | CC50 [µM]
COc1cc(Cl)cc(-c2nn(-c3cccc(NC(=O)Nc4cccc(C(F)(F)F)c4)c3)cc2-c2ccncc2)c1 | > 100

same assay, conditions: SK-OV-3, 48 h, read-out: pTGI (converted)

Structure (SMILES) | TGI [µM]
COc1cc(Cl)cc(-c2nn(-c3cccc(NC(=O)Nc4cccc(C(F)(F)F)c4)c3)cc2-c2ccncc2)c1 | 58.9

system: RPMI-8226; test: Growth inhibition of human RPMI8226 cells assessed as cell growth at 0.01 uM incubated for 48 hrs by sulforhodamine B assay relative to control; assay type: functional; conditions: RPMI-8226, 48 h, read-out: Activity

Structure (SMILES) | growth at 0.01 µM [%]
COc1cc(Cl)cc(-c2nn(-c3cccc(NC(=O)Nc4cccc(C(F)(F)F)c4)c3)cc2-c2ccncc2)c1 | 99

system: NCI/ADR-RES; test: Growth inhibition of human NCI/ADR-RES cells assessed as cell growth at 100 uM incubated for 48 hrs by sulforhodamine B assay relative to control; assay type: functional; conditions: read-out: Activity

Structure (SMILES) | growth at 100 µM [%]
COc1cc(Cl)cc(-c2nn(-c3cccc(NC(=O)Nc4cccc(C(F)(F)F)c4)c3)cc2-c2ccncc2)c1 | -22

system: A549; test: Growth inhibition of human A549/ATCC cells assessed as cell growth at 1 uM incubated for 48 hrs by sulforhodamine B assay relative to control; assay type: functional; conditions: A549, 48 h, read-out: Activity

Structure (SMILES) | growth at 1 µM [%]
COc1cc(Cl)cc(-c2nn(-c3cccc(NC(=O)Nc4cccc(C(F)(F)F)c4)c3)cc2-c2ccncc2)c1 | 43

system: MCF7; test: Growth inhibition of human MCF7 cells assessed as cell growth at 100 uM incubated for 48 hrs by sulforhodamine B assay relative to control; assay type: functional; conditions: MCF7, 48 h, read-out: Activity

Structure (SMILES) | growth at 100 µM [%]
COc1cc(Cl)cc(-c2nn(-c3cccc(NC(=O)Nc4cccc(C(F)(F)F)c4)c3)cc2-c2ccncc2)c1 | -24

system: A498; test: Growth inhibition of human A498 cells assessed as cell growth at 0.1 uM incubated for 48 hrs by sulforhodamine B assay relative to control; assay type: functional; conditions: A498, 48 h, read-out: Activity

Structure (SMILES) | growth at 0.1 µM [%]
COc1cc(Cl)cc(-c2nn(-c3cccc(NC(=O)Nc4cccc(C(F)(F)F)c4)c3)cc2-c2ccncc2)c1 | 92

system: A498; test: Growth inhibition of human A498 cells assessed as cell growth at 100 uM incubated for 48 hrs by sulforhodamine B assay relative to control; assay type: functional; conditions: A498, 48 h, read-out: Activity

Structure (SMILES) | growth at 100 µM [%]
COc1cc(Cl)cc(-c2nn(-c3cccc(NC(=O)Nc4cccc(C(F)(F)F)c4)c3)cc2-c2ccncc2)c1 | -6

system: NCI/ADR-RES; test: Growth inhibition of human NCI/ADR-RES cells assessed as cell growth at 0.01 uM incubated for 48 hrs by sulforhodamine B assay relative to control; assay type: functional; conditions: read-out: Activity

Structure (SMILES) | growth at 0.01 µM [%]
COc1cc(Cl)cc(-c2nn(-c3cccc(NC(=O)Nc4cccc(C(F)(F)F)c4)c3)cc2-c2ccncc2)c1 | 100

system: SK-MEL-28; test: Growth inhibition of human SK-MEL-28 cells assessed as cell growth at 1 uM incubated for 48 hrs by sulforhodamine B assay relative to control; assay type: functional; conditions: SK-MEL-28, 48 h, read-out: Activity

Structure (SMILES) | growth at 1 µM [%]
COc1cc(Cl)cc(-c2nn(-c3cccc(NC(=O)Nc4cccc(C(F)(F)F)c4)c3)cc2-c2ccncc2)c1 | 82

system: PC-3; test: Growth inhibition of human PC3 cells assessed as cell growth at 1 uM incubated for 48 hrs by sulforhodamine B assay relative to control; assay type: functional; conditions: PC-3, 48 h, read-out: Activity

Structure (SMILES) | growth at 1 µM [%]
COc1cc(Cl)cc(-c2nn(-c3cccc(NC(=O)Nc4cccc(C(F)(F)F)c4)c3)cc2-c2ccncc2)c1 | 27

system: SW-620; test: Growth inhibition of human SW620 cells assessed as cell growth at 0.01 uM incubated for 48 hrs by sulforhodamine B assay relative to control; assay type: functional; conditions: SW-620, 48 h, read-out: Activity

Structure (SMILES) | growth at 0.01 µM [%]
COc1cc(Cl)cc(-c2nn(-c3cccc(NC(=O)Nc4cccc(C(F)(F)F)c4)c3)cc2-c2ccncc2)c1 | 103
